Measurements taken from patent US12391698B2, “Substituted piperidines and piperazines and methods for the treatment of CNS disorders” (SUVEN LIFE SCIENCES LIMITED, priority 2022, dated 2025).
Structures can show the parent of a compound that is named as a salt. Where two headings read alike, the source gives them in different places.

Tests used:
[1] = target: cloned human SERT receptor (Homo sapiens, UniProt P31645); assay: Determination of Ki at SERT receptor (SPA binding, [3H]-Citalopram); details: HEK293 recombinant cells, [3H]-Citalopram 2 nM
Summary of the method: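 HEK293-expressed human SERT; [3H]-citalopram at 2 nM final, nonspecific binding with 0.1 mM venlafaxine. Incubated 3 h at r.t. in 50 mM Tris-HCl pH 7.4, 150 mM NaCl, 5 mM KCl with SPA beads. Bead-proximal radioactivity compared with control values.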

[2] = target: T1, cloned human 5-HT1A receptor (Homo sapiens, UniProt P08908); assay: Determination of Ki at 5-HT1A receptor (radioligand binding, [3H]-8-Hydroxy DPAT); details: HEK293-EBNA recombinant cells, [3H]-8-Hydroxy DPAT 0.8 nM
T1 construct: expressed in transfected cells; host or cells: HEK293-EBNA
T1 sequence (P08908 1-422): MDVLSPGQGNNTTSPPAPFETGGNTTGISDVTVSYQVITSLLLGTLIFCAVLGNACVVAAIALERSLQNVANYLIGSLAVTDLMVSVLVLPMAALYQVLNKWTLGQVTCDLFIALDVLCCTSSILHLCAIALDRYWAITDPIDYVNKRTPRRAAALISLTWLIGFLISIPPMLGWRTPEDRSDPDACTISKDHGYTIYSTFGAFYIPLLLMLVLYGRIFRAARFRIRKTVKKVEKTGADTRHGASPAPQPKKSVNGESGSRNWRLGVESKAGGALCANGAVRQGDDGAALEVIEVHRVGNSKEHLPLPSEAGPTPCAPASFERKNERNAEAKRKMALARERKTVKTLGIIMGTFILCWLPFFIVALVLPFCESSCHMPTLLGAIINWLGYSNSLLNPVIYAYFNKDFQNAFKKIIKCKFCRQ
Summary of the method: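 Membranes from HEK293-EBNA cells expressing recombinant human 5-HT1A were incubated with 0.8 nM [3H]-8-hydroxy-DPAT for 2 h at r.t. in pH 7.4 Tris-HCl buffer with EDTA, MgSO4 and ascorbic acid. Non-specific binding was defined with 0.1 mM U92016A; bound radioactivity after filtration was compared with controls.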

[3] = target: T2, recombinant rat 5-HT7 receptor (Rattus norvegicus, UniProt P32305); assay: Determination of Kb at 5-HT7 receptor, pCRE-Luc reporter gene assay in CHO cells; type: cell-based; details: for antagonistic activity at rat recombinant 5-HT7 receptor: pCRE-Luc reporter gene assay
T2 construct: expressed in transfected cells
Method: A stable CHO cell line expressing recombinant rat 5-HT7 receptor and pCRE-Luc reporter system was used for cell-based assay. The assay offers a non-radioactive based approach to determine binding of a compound to GPCRs. In this specific assay, the level of intracellular cAMP which is modulated by activation or inhibition of the receptor is measured. The recombinant cells harbor luciferase reporter gene under the control of cAMP response element.
The above cells were grown in 96 well clear bottom white plates in Hams F12 medium containing 10% fetal bovine serum (FBS). Prior to the addition of compounds or standard agonist, cells were serum starved overnight. Increasing concentrations of test compound were added along with 1 μM of serotonin in Opti-MEM medium to the cells. The incubation was continued at 37° C. in CO2 incubator for 4 hours. Medium was removed and cells were washed with phosphate buffered saline. The cells were lysed and luciferase activity was measured in a Luminometer. Luminescence units were plotted against the compound concentrations using GraphPad Prism software. EC50 values of the compounds were defined as the concentration required in reducing the luciferase activity by 50%. The Kb values were calculated by feeding the concentration of agonist used in the assay and its EC50 value in the same software.

[4] = target: T3, hD2S (cloned human dopamine D2S receptor) (Homo sapiens, UniProt P14416); assay: Determination of Ki at D2S receptor (radioligand binding, [3H]-Raclopride); details: CHO-K1 recombinant cells, [3H]-Raclopride 4 nM
T3 construct: expressed in transfected cells; host or cells: CHO-K1
Summary of the method: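 Displacement of 4 nM [3H]-Raclopride from membranes of CHO-K1 cells expressing the receptor, 2 h at r.t. in 50 mM Tris-HCl pH 7.4 with 120 mM NaCl, 5 mM KCl, 5 mM MgCl2, 1 mM EDTA. Non-specific binding defined with 0.1 mM haloperidol; filter-bound radioactivity compared with control.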

[5] = target: T2, recombinant rat 5-HT7 receptor; assay: Determination of Kb at 5-HT7 receptor, pCRE-Luc reporter gene assay in CHO cells; type: cell-based
[6] = Rodent pharmacokinetic study; type: in vivo, Male Wistar rats; details: rat, plasma, mean ± S.D, n = 3; for bioavailability: oral 3 mg/kg vs intravenous 1 mg/kg, read-out: F (Bioavailability)
Method: Male Wistar rats (260±50 g) were used as experimental animals. Animals were housed individually in polypropylene cage. Two days prior to study, male Wistar rats were anesthetized with isoflurane for surgical placement of jugular vein catheter. Rats were randomly divided for oral (3 mg/kg) and intravenous (1 mg/kg) dosing (n=3/group) and fasted overnight before oral dosing (p.o.). However, food and water were provided ad libitum to the rats allocated for intravenous dosing.
At pre-determined time points, blood samples were collected through jugular vein and replenished with an equivalent volume of normal saline. Collected blood was transferred into a labeled eppendorf tube containing 10 μL of heparin as an anticoagulant. Typically blood samples were collected at 0.08, 0.25, 0.5, 1, 2, 4, 6, 8, and 24 h post dose. Blood samples were centrifuged at 4000 rpm for 10 min. Plasma was separated and stored frozen at −80° C. until analysis. The concentrations of the test compounds were quantified in plasma by qualified LC-MS/MS method using suitable extraction technique. The test compounds were quantified in the calibration range around 1-1000 ng/mL in plasma. Study samples were analyzed using calibration samples in the batch and quality control samples spread across the batch.
Pharmacokinetic parameters Cmax, AUCt, t1/2. Clearance and Bioavailability (F) were calculated using standard non-compartmental model by using Phoenix WinNonlin 6.0.4 version software package.

[7] = rat receptor, with 1 μM serotonin, luciferase readout, read-out: Kb at 5-HT7 receptor
[8] = intravenous (bolus) 1 mg/kg, male Wistar rats
[9] = oral (gavage) 3 mg/kg, fasted male Wistar rats

T3 sequence (P14416 1-414 isoform P14416-2): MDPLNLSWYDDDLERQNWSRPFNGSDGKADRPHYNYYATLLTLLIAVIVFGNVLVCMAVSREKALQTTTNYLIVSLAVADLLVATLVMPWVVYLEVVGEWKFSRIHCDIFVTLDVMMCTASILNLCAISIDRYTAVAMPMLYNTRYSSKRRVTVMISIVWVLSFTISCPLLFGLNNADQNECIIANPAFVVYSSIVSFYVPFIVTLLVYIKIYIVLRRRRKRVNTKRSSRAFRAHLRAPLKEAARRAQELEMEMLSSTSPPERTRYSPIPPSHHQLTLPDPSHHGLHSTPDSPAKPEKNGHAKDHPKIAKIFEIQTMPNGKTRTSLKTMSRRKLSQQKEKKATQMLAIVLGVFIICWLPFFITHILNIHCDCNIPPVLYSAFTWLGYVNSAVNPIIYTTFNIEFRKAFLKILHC
Sequence of cloned human SERT receptor (P31645 whole entry): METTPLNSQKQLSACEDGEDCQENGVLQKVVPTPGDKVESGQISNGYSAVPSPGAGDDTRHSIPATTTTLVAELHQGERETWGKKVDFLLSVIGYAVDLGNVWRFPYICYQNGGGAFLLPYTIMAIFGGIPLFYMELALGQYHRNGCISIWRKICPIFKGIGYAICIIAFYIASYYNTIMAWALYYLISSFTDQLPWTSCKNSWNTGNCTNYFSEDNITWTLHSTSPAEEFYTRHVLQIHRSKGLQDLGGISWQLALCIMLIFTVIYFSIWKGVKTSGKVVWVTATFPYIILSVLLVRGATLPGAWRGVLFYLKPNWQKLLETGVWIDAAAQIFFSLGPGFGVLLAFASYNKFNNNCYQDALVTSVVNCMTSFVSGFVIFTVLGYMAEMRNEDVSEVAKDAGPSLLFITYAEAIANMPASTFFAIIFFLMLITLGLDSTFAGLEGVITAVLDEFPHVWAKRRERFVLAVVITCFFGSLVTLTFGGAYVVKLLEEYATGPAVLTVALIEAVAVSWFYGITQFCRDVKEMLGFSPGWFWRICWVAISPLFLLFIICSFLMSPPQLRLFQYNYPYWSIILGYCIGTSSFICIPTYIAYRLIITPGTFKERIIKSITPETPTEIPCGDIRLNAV
T2 sequence (P32305 whole entry): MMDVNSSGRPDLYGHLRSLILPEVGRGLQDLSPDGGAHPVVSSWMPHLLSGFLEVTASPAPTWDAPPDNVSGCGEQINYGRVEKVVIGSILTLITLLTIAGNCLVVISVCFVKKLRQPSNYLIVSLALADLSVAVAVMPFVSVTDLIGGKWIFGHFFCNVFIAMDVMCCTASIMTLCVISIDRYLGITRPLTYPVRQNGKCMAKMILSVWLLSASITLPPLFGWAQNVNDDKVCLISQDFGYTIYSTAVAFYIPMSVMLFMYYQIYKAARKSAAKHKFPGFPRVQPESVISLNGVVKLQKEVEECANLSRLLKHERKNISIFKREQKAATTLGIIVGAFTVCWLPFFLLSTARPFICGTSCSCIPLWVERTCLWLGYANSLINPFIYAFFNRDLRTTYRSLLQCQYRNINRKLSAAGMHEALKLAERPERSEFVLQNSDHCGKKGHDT

## O=C1C[C@@H]2CCCN2C(=O)N1CCCCN1CCN(c2nsc3ccccc23)CC1 [Example 2, 2-[4-(4-Benzo[d]isothiazol-3-yl-piperazin-1-yl)-butyl]-tetrahydro-pyrrolo[1,2-c]pyrimidine-1,3-dione oxalate]
[1]; read-out: Ki hSERT
  Ki: 1060 nM
[2]; read-out: Ki h5-HT1A
  Ki: 0.06 nM
[3]
  antagonistic activity at rat recombinant 5-HT7 receptor: antagonistic activity
[3]; [7]
  Kb: 0.6 nM
[4]; read-out: Ki hD2S
  Ki: 5.4 nM
[5]
  agonist activity at rat recombinant 5-HT7 receptor: no detectable agonist activity
[6]; [8]
  AUC(0-t): 544 ± 19 ng·h/mL
  clearance: 30 ± 1 mL/min/kg
  half-life: 2 ± 0.7 h
[6]; male Wistar rats
  bioavailability: 15 ± 3%
[6]; [9]
  AUC(0-t): 244 ± 53 ng·h/mL
  Cmax: 253 ± 59 ng/mL
  half-life: 1.3 ± 0.1 h

## O=C1C[C@@H]2CCCN2C(=O)N1CCCCN1CCN(c2cccc3sccc23)CC1 [Example 4, 2-[4-(4-Benzo[b]thiophen-4-yl-piperazin-1-yl)-butyl]-tetrahydro-pyrrolo[1,2-c]pyrimidine-1,3-dione oxalate]
[1]; read-out: Ki hSERT
  Ki: 228 nM
[2]; read-out: Ki h5-HT1A
  Ki: 0.195 nM
[4]; read-out: Ki hD2S
  Ki: 1.83 nM
[6]; [8]
  AUC(0-t): 350 ± 40 ng·h/mL
  clearance: 48 ± 5 mL/min/kg
  half-life: 0.8 ± 0.2 h
[6]; male Wistar rats
  bioavailability: 16 ± 1%
[6]; [9]
  AUC(0-t): 169 ± 14 ng·h/mL
  Cmax: 77 ± 2 ng/mL
  half-life: 1.1 ± 0.3 h

## O=C1C[C@@H]2C[C@H](F)CN2C(=O)N1CCCCN1CCN(c2nsc3ccccc23)CC1 [Example 9, 2-[4-(4-Benzo[d]isothiazol-3-yl-piperazin-1-yl)-butyl]-6-fluoro-tetrahydro-pyrrolo[1,2-c]pyrimidine-1,3-dione oxalate]
[1]; read-out: Ki hSERT
  Ki: 833 nM
[2]; read-out: Ki h5-HT1A
  Ki: 0.89 nM
[3]
  antagonistic activity at rat recombinant 5-HT7 receptor: antagonistic activity
[3]; [7]
  Kb: 0.7 nM
[4]; read-out: Ki hD2S
  Ki: 2.78 nM
[5]
  agonist activity at rat recombinant 5-HT7 receptor: no detectable agonist activity
[6]; [8]
  AUC(0-t): 415 ± 69 ng·h/mL
  clearance: 40 ± 6 mL/min/kg
  half-life: 1.8 ± 0.1 h
[6]; male Wistar rats
  bioavailability: 14 ± 2%
[6]; [9]
  AUC(0-t): 178 ± 23 ng·h/mL
  Cmax: 164 ± 43 ng/mL
  half-life: 1.4 ± 0.3 h

## O=C1C[C@@H]2C[C@H]3C[C@H]3N2C(=O)N1CCCCN1CCN(c2nsc3ccccc23)CC1 [Example 11, 3-[4-(4-Benzo[d]isothiazol-3-yl-piperazin-1-yl)-butyl]-hexahydro-1b,3-diaza-cyclopropa[a]indene-2,4-dione oxalate]
[1]; Ki hSERT
  Ki: 1280 nM
[2]; Ki h5-HT1A
  Ki: 0.29 nM
[3]
  Kb: 0.17 nM
  antagonistic activity at rat recombinant 5-HT7 receptor: antagonistic activity
[4]; Ki hD2S
  Ki: 0.62 nM
[5]
  agonist activity at rat recombinant 5-HT7 receptor: no detectable agonist activity
[6]; [8]
  AUC(0-t): 412 ± 44 ng·h/mL
  clearance: 41 ± 5 mL/min/kg
  half-life: 1.3 ± 0.1 h
[6]; male Wistar rats
  bioavailability: 8 ± 5%
[6]; [9]
  AUC(0-t): 98 ± 63 ng·h/mL
  Cmax: 94 ± 52 ng/mL
  half-life: 2 ± 0.2 h
